Source: the SangsterLogP compilation

Structure (SMILES)	logP
Cc1cccc(C)c1C	3.78
CCc1cccc(C)c1C	4.34
Cc1ccccc1C(C)C	4.38
CCCCCCCCCc1ccccc1	7.11
Cc1ccc(C)c(C)c1	3.91
Cc1cccc(C(C)C)c1	4.5
CCc1ccccc1C	3.86
CCC(C)c1ccccc1 (stereo not given)	4.57
CCCc1ccccc1C	4.5
Cc1ccc(C)cc1	3.42
CC(C)Cc1ccccc1	4.68
CCc1c(C)cccc1C	4.28

The next lines start with the values.

logP	Structure (SMILES)
4.5	CCc1ccc(C)c(C)c1
4.55	CCc1cc(C)cc(C)c1
4.67	CCCc1cccc(C)c1
4.43	CCc1cc(C)ccc1C
3.98	CCc1cccc(C)c1
4.6	CCCc1ccc(C)cc1
4	CCc1ccc(C)cc1
4.47	CCc1ccc(C)cc1C
